Source: the supplement of paper PMC9663587

Legend:
Assay in all cases: GRmax, 72 h; higher = less effect;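 further: breast cell lines in 384-well plates, nine doses across a 10^4 range, Dye Drop imaging of viable cells vs DMSO and time-zero plates, GR 0 means no net growth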
[1] = test system: MDAMB330
[2] = test system: MDAMB436
[3] = test system: BT549
[4] = test system: EVSAT
[5] = test system: HCC1806
[6] = test system: SUM159
[7] = test system: MDAMB175VII
[8] = test system: PDX1258
[9] = test system: ZR751
[10] = test system: HCC1395
[11] = test system: MGH312
[12] = test system: HCC1419

For `NC(=O)Nc1cc(-c2cccc(F)c2)sc1C(=O)N[C@H]1CCCNC1` [AZD7762] (max 10 µM), the “GRmax, 72 h” value [1] was -0.607 GR, the “GRmax, 72 h” value [2] was -0.281 GR and the “GRmax, 72 h” value [3] was -0.482 GR. The “GRmax, 72 h” value [4] was -0.319 GR, the “GRmax, 72 h” value [5] was -0.482 GR and the “GRmax, 72 h” value [6] was -0.278 GR. For the same compound, the “GRmax, 72 h” value [7] was -0.811 GR, the “GRmax, 72 h” value [8] was -0.453 GR and the “GRmax, 72 h” value [9] was -0.0705 GR. For the same compound, the “GRmax, 72 h” value [10] was -0.69 GR, the “GRmax, 72 h” value [11] was -0.515 GR and the “GRmax, 72 h” value [12] was -0.0826 GR.
`Cc1nc(NC(=O)N2CCC[C@H]2C(N)=O)sc1-c1ccnc(C(C)(C)C(F)(F)F)c1` [Alpelisib/BYL719] (max 10 µM) was tested, and the “GRmax, 72 h” value [1] was -0.555 GR, the “GRmax, 72 h” value [2] was 0.725 GR and the “GRmax, 72 h” value [3] was 0.684 GR. For the same compound, the “GRmax, 72 h” value [4] was 0.716 GR, the “GRmax, 72 h” value [5] was 0.726 GR and the “GRmax, 72 h” value [6] was 0.602 GR. For the same compound, the “GRmax, 72 h” value [7] was -0.697 GR, the “GRmax, 72 h” value [8] was 0.631 GR and the “GRmax, 72 h” value [9] was 0.577 GR. For the same compound, the “GRmax, 72 h” value [10] was 0.637 GR, the “GRmax, 72 h” value [11] was 0.104 GR and the “GRmax, 72 h” value [12] was -0.002 GR.
For `CN(C)C/C=C/C(=O)Nc1ccc(O[C@@H]2CCC[C@@H](Nc3ncc(Cl)c(-c4c[nH]c5ccccc45)n3)C2)cc1` [BSJ-01-175] (max 10 µM), the “GRmax, 72 h” value [1] was -0.971 GR, the “GRmax, 72 h” value [2] was -0.598 GR and the “GRmax, 72 h” value [3] was -0.593 GR. For the same compound, the “GRmax, 72 h” value [4] was -0.512 GR, the “GRmax, 72 h” value [5] was -0.592 GR and the “GRmax, 72 h” value [6] was -0.473 GR. The “GRmax, 72 h” value [7] was -0.798 GR, the “GRmax, 72 h” value [8] was -0.914 GR and the “GRmax, 72 h” value [9] was -0.346 GR. The “GRmax, 72 h” value [10] was -0.862 GR, the “GRmax, 72 h” value [11] was -0.985 GR and the “GRmax, 72 h” value [12] was -0.601 GR.
With `CC(=O)c1c(C)c2cnc(Nc3ccc(N4CCN(CCOCCOCCOCCNC(=O)COc5cccc6c5C(=O)N(C5CCC(=O)NC5=O)C6=O)CC4)cn3)nc2n(C2CCCC2)c1=O` (stereo unspecified) [BSJ-03-123] (max 10 µM) the “GRmax, 72 h” value [1] was -0.0919 GR, the “GRmax, 72 h” value [2] was -0.0126 GR and the “GRmax, 72 h” value [3] was 0.0183 GR. For the same compound, the “GRmax, 72 h” value [4] was 0.0652 GR, the “GRmax, 72 h” value [5] was -0.0588 GR and the “GRmax, 72 h” value [6] was -0.042 GR. The “GRmax, 72 h” value [7] was 0.0607 GR, the “GRmax, 72 h” value [8] was -0.415 GR and the “GRmax, 72 h” value [9] was 0.245 GR. The “GRmax, 72 h” value [10] was -0.171 GR, the “GRmax, 72 h” value [11] was -0.894 GR and the “GRmax, 72 h” value [12] was 0.165 GR.
With `CC(C)Nc1cc(-c2c[nH]c(C(=O)N[C@H](CO)c3cccc(Cl)c3)c2)c(Cl)cn1` [BVD523] (max 10 µM) the “GRmax, 72 h” value [1] was 0.356 GR, the “GRmax, 72 h” value [2] was 0.649 GR and the “GRmax, 72 h” value [3] was 0.545 GR. The “GRmax, 72 h” value [4] was 0.695 GR, the “GRmax, 72 h” value [5] was 0.76 GR and the “GRmax, 72 h” value [6] was 0.156 GR. For the same compound, the “GRmax, 72 h” value [7] was -0.31 GR, the “GRmax, 72 h” value [8] was 0.163 GR and the “GRmax, 72 h” value [9] was 0.554 GR. For the same compound, the “GRmax, 72 h” value [10] was 0.253 GR, the “GRmax, 72 h” value [11] was 0.914 GR and the “GRmax, 72 h” value [12] was 0.637 GR.
`Cc1c(N)nc([C@H](CC(N)=O)NC[C@H](N)C(N)=O)nc1C(=O)N[C@H](C(=O)N[C@H](C)[C@@H](O)[C@H](C)C(=O)N[C@H](C(=O)NCCc1nc(-c2nc(C(=O)NCCC[S+](C)C)cs2)cs1)[C@@H](C)O)[C@@H](OC1OC(CO)C(O)C(O)C1OC1OC(CO)C(O)C(OC(N)=O)C1O)c1cnc[nH]1` (stereo partly specified) [Bleomycin] (max 10 µM) was tested, and the “GRmax, 72 h” value ([2]; main component drawn) was -0.12 GR, the “GRmax, 72 h” value ([3]; main component drawn) was -0.0141 GR and the “GRmax, 72 h” value ([5]; main component drawn) was 0.481 GR. For the same compound, the “GRmax, 72 h” value ([6]; main component drawn) was -0.21 GR, the “GRmax, 72 h” value ([8]; main component drawn) was 0.0721 GR and the “GRmax, 72 h” value ([10]; main component drawn) was -0.402 GR. For the same compound, the “GRmax, 72 h” value ([12]; main component drawn) was 0.354 GR.
In the case of `Nc1cc(C(F)(F)F)c(-c2cc(N3CCOCC3)nc(N3CCOCC3)n2)cn1` [Buparlisib/NVP-BKM120] (max 10 µM), the “GRmax, 72 h” value [1] is reported as -0.858 GR, the “GRmax, 72 h” value [2] is reported as -0.287 GR and the “GRmax, 72 h” value [3] is reported as -0.272 GR. For the same compound, the “GRmax, 72 h” value [4] was -0.499 GR, the “GRmax, 72 h” value [5] was -0.269 GR and the “GRmax, 72 h” value [6] was -0.279 GR. For the same compound, the “GRmax, 72 h” value [7] was -0.976 GR, the “GRmax, 72 h” value [8] was -0.392 GR and the “GRmax, 72 h” value [9] was -0.226 GR. The “GRmax, 72 h” value [10] was -0.506 GR, the “GRmax, 72 h” value [11] was -0.859 GR and the “GRmax, 72 h” value [12] was -0.496 GR.
`COc1cc2nccc(Oc3ccc(NC(=O)C4(C(=O)Nc5ccc(F)cc5)CC4)cc3)c2cc1OC` [Cabozantinib] (max 10 µM) was tested, and the “GRmax, 72 h” value [1] was 0.743 GR, the “GRmax, 72 h” value [2] was 0.0862 GR and the “GRmax, 72 h” value [3] was 0.533 GR. The “GRmax, 72 h” value [4] was 0.654 GR, the “GRmax, 72 h” value [5] was 0.691 GR and the “GRmax, 72 h” value [6] was 0.257 GR. For the same compound, the “GRmax, 72 h” value [7] was 0.0863 GR, the “GRmax, 72 h” value [8] was 0.28 GR and the “GRmax, 72 h” value [9] was 1.06 GR. For the same compound, the “GRmax, 72 h” value [10] was 0.114 GR, the “GRmax, 72 h” value [11] was 0.332 GR and the “GRmax, 72 h” value [12] was 0.622 GR.
